Source: US20090130194A1, “Methods of Treating Cancer with High Potency Lipid-Based Platinum Compound Formulations Administered Intravenously” (Transave, Inc., priority 2005, published 2009)

Legend:
[1] = Nephrotoxicity: blood urea nitrogen (BUN); type: in vivo; details: MTD
Excerpt: Nephrotoxicity. ICR mice, 7 weeks old, female, were divided into 4 groups with 3 to 4 mice in each. […] Four days after the injection, the mice were euthanized with Nembutal ip. The blood was drawn and the serum was isolated. The blood urea nitrogen (BUN) was quantitatively measured with a calorimetric method at Antech Diagnostics. Organs including duodenum, heart, kidney, liver, lung, and spleen were resected from the mice and fixed with 10% buffered Formalin. The fixed tissues were processed with standard procedure for H and E staining. A pathology expert Dr. Carman Tornos at the Memorial Sloan-Kettering Cancer Center examined kidney tissues and gave a toxicity grade to each kidney tissue sample. The grading was based on the general pathology guidelines for kidney toxicity.

[2] = Pharmacokinetics and organ distribution of ip and iv injected L-CDDP and CDDP (platinum by ICP-MS); type: in vivo, ICR mice; details: 8 mg/kg
Description: Pharmacokinetics and organ distribution in animals of ip and iv injected lipid-complexed cisplatin and cisplatin (Part II). Sixty ICR mice (female, 7 weeks old) were divided into 4 groups. They received intraperitoneal or intravenous injection of L-CDDP or CDDP, separately. The dose was 12 mg/kg for ip L-CDDP and 8 mg/kg for the rest of treatment groups. At each designed time point, three to four mice were anaesthetized with 70 mg/kg of Nembutal ip (e.g., 3, 20, and 40 min, and 2, 8, 24, 48, and 72 h). […] Organs including liver, lung, and spleen were resected from the mice. The organ samples were homogenized in distilled water (4-fold of the sample weight) and digested with nitric acid. The platinum concentration in each sample was measured by Inductively Coupled Plasma-Mass Spectrometer (ICP-MS). The pharmacokinetics profiles (FIGS. 4, 5, and 6, all Y-axes are concentration of μg platinum in one gram of tissue or fluid per mg of injected dose) and parameters (Table 2) of each formulation were simulated and calculated.

## N.N.[Cl][Pt][Cl] [CDDP, cis diamminedichloroplatinum]
[1]; either route
  BUN level change (in words): increase
[1]; ip, 4 days after injection, p=0.04
  BUN level increase compared with normal controls: 2.1 fold
[2]
  AUC, Liver: 19.96 µg·h/g/µg
  AUC, Lung: 5.58 µg·h/g/µg
  AUC, Spleen: 8.11 µg·h/g/µg
  Cmax, Liver: 0.74 µg/g/µg
  Cmax, Lung: 0.28 µg/g/µg
